#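 1) Cells in 96-well plates. 2) Compound, 48 h, 5 concentrations. 3) Linear interpolation between surrounding doses. 4) Unreached endpoint = highest concentration. GI50: concentration for 50% inhibition of growth.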 The source made the active and inactive calls. No stated cut-off is given here; in the data, active = GI50 up to about 1.1 µM and inactive = higher.
# Assays:
# Experiment in all cases: DTP human tumour cell line panel, 48 h
# 786-0 = test system: 786-0
# SK-OV-3 = test system: SK-OV-3
# LOX IMVI = test system: LOX IMVI
# HCT-116 = test system: HCT-116
# OVCAR-4 = test system: OVCAR-4
# MDA-N = test system: MDA-N
# HOP-92 = test system: HOP-92
# TK-10 = test system: TK-10
# HCC 2998 = test system: HCC 2998
# SR = test system: SR
# RPMI-8226 = test system: RPMI-8226
# A498 = test system: A498
# KM12 = test system: KM12
# HOP-62 = test system: HOP-62
# EKVX = test system: EKVX
# HCT-15 = test system: HCT-15
# SN12C = test system: SN12C
# NCI-H460 = test system: NCI-H460
# SF-295 = test system: SF-295
# T47D = test system: T47D
# SK-MEL-5 = test system: SK-MEL-5
# K562 = test system: K562
# U-251 = test system: U-251
# RXF 393 = test system: RXF 393
# MCF7 = test system: MCF7
# ACHN = test system: ACHN
# SNB-75 = test system: SNB-75
# UO-31 = test system: UO-31
# OVCAR-8 = test system: OVCAR-8
# SF-539 = test system: SF-539
# COLO 205 = test system: COLO 205
# UACC-62 = test system: UACC-62
# MDA-MB-435 = test system: MDA-MB-435
# IGROV-1 = test system: IGROV-1
# SNB-19 = test system: SNB-19
# MOLT-4 = test system: MOLT-4
# NCI-H226 = test system: NCI-H226
# SW-620 = test system: SW-620
# CAKI-1 = test system: CAKI-1
# SF-268 = test system: SF-268
# NCI-H522 = test system: NCI-H522
# Malme-3M = test system: Malme-3M
# HT-29 = test system: HT-29
# A549 = test system: A549
# NCI/ADR-RES = test system: NCI/ADR-RES
# M14 = test system: M14
# SK-MEL-2 = test system: SK-MEL-2
# MDA-MB-231 = test system: MDA-MB-231
# SK-MEL-28 = test system: SK-MEL-28
# NCI-H23 = test system: NCI-H23
# OVCAR-5 = test system: OVCAR-5
# BT-549 = test system: BT-549
# UACC-257 = test system: UACC-257
# Hs-578T = test system: Hs-578T
# HL-60 = test system: HL-60
# OVCAR-3 = test system: OVCAR-3
# CCRF-CEM = test system: CCRF-CEM
# PC-3 = test system: PC-3
# DU-145 = test system: DU-145
smiles,measurement,setting,value
COC(=O)C1=C(O)C(C(=O)OC)[C@]2(O)[C@H](C(=O)OC)[C@H]1C[C@@H](c1ccc(OC)cc1)[C@H]2C(=O)OC (some centres not stated),GI50,786-0,20.2 µM (inactive)
same,GI50,SK-OV-3,29 µM (inactive)
same,GI50,LOX IMVI,24.4 µM (inactive)
same,GI50,HCT-116,16.3 µM (inactive)
same,GI50,OVCAR-4,19.8 µM (inactive)
same,GI50,MDA-N,8.71 µM (inactive)
same,GI50,HOP-92,59.7 µM (inactive)
same,GI50,TK-10,34.3 µM (inactive)
same,GI50,HCC 2998,17.8 µM (inactive)
same,GI50,SR,16.1 µM (inactive)
same,GI50,RPMI-8226,12.4 µM (inactive)
same,GI50,A498,7.74 µM (inactive)
same,GI50,KM12,19.5 µM (inactive)
same,GI50,HOP-62,29.9 µM (inactive)
same,GI50,EKVX,26.3 µM (inactive)
same,GI50,HCT-15,21.9 µM
same,GI50,SN12C,21.5 µM (inactive)
same,GI50,NCI-H460,17.7 µM (inactive)
same,GI50,SF-295,44.6 µM (inactive)
same,GI50,T47D,22.3 µM (inactive)
same,GI50,SK-MEL-5,13.7 µM (inactive)
same,GI50,K562,15.5 µM (inactive)
same,GI50,U-251,24.5 µM (inactive)
same,GI50,RXF 393,16 µM (inactive)
same,GI50,MCF7,20.2 µM (inactive)
same,GI50,ACHN,18 µM (inactive)
same,GI50,SNB-75,27.9 µM (inactive)
same,GI50,UO-31,11.3 µM (inactive)
same,GI50,OVCAR-8,30.7 µM (inactive)
same,GI50,SF-539,28.3 µM (inactive)
same,GI50,COLO 205,35.2 µM (inactive)
same,GI50,UACC-62,12.1 µM (inactive)
same,GI50,MDA-MB-435,5.97 µM (inactive)
same,GI50,IGROV-1,34.6 µM (inactive)
same,GI50,SNB-19,29.4 µM (inactive)
same,GI50,MOLT-4,10.2 µM (inactive)
same,GI50,NCI-H226,30.3 µM (inactive)
same,GI50,SW-620,17.7 µM (inactive)
same,GI50,CAKI-1,19.5 µM (inactive)
same,GI50,SF-268,19.6 µM (inactive)
same,GI50,NCI-H522,2.36 µM (inactive)
same,GI50,Malme-3M,17.7 µM (inactive)
same,GI50,HT-29,29.8 µM (inactive)
same,GI50,A549,20.5 µM (inactive)
same,GI50,NCI/ADR-RES,23.8 µM (inactive)
same,GI50,M14,23.8 µM (inactive)
same,GI50,SK-MEL-2,19.8 µM (inactive)
same,GI50,MDA-MB-231,30 µM (inactive)
same,GI50,SK-MEL-28,30.4 µM (inactive)
same,GI50,NCI-H23,23.6 µM (inactive)
same,GI50,OVCAR-5,20.7 µM (inactive)
same,GI50,BT-549,30.8 µM (inactive)
same,GI50,UACC-257,24.7 µM (inactive)
same,GI50,Hs-578T,19.9 µM (inactive)
COc1cc2c(cc1O)C1CC(CC3CCCCN31)OC(=O)/C=C\c1ccc(O)c-2c1 (configuration not stated),GI50,786-0,32.4 µM (inactive)
same,GI50,SK-OV-3,31.2 µM (inactive)
same,GI50,LOX IMVI,16.7 µM (inactive)
same,GI50,HCT-116,27.9 µM (inactive)
same,GI50,OVCAR-4,27.3 µM (inactive)
same,GI50,MDA-N,35.9 µM (inactive)
same,GI50,HOP-92,15.5 µM (inactive)
same,GI50,TK-10,26.4 µM (inactive)
same,GI50,HCC 2998,18.2 µM (inactive)
same,GI50,RPMI-8226,27 µM (inactive)
same,GI50,A498,12.9 µM (inactive)
same,GI50,KM12,16.4 µM (inactive)
same,GI50,HL-60,27.8 µM (inactive)
same,GI50,EKVX,41.6 µM (inactive)
same,GI50,HCT-15,36.9 µM
same,GI50,SN12C,37.2 µM (inactive)
same,GI50,NCI-H460,37.1 µM (inactive)
same,GI50,SF-295,13.5 µM (inactive)
same,GI50,T47D,18.5 µM (inactive)
same,GI50,SK-MEL-5,16.8 µM (inactive)
same,GI50,K562,28 µM (inactive)
same,GI50,U-251,35 µM (inactive)
same,GI50,MCF7,13.9 µM (inactive)
same,GI50,ACHN,31.6 µM (inactive)
same,GI50,OVCAR-3,21.3 µM (inactive)
same,GI50,SNB-75,10.2 µM (inactive)
same,GI50,CCRF-CEM,30.1 µM (inactive)
same,GI50,UO-31,25.9 µM (inactive)
same,GI50,OVCAR-8,21.6 µM (inactive)
same,GI50,SF-539,15.8 µM (inactive)
same,GI50,COLO 205,25.2 µM (inactive)
same,GI50,UACC-62,18 µM (inactive)
same,GI50,MDA-MB-435,21.9 µM (inactive)
same,GI50,IGROV-1,24.7 µM (inactive)
same,GI50,SNB-19,63 µM (inactive)
same,GI50,MOLT-4,20 µM (inactive)
same,GI50,NCI-H226,41.4 µM (inactive)
same,GI50,SW-620,51.2 µM (inactive)
same,GI50,CAKI-1,23.1 µM (inactive)
same,GI50,SF-268,24.9 µM (inactive)
same,GI50,NCI-H522,26.5 µM (inactive)
same,GI50,Malme-3M,19.5 µM (inactive)
same,GI50,PC-3,28.5 µM (inactive)
same,GI50,HT-29,20.5 µM (inactive)
same,GI50,A549,57 µM (inactive)
same,GI50,NCI/ADR-RES,23.8 µM (inactive)
same,GI50,M14,19.6 µM (inactive)
same,GI50,SK-MEL-2,26.5 µM (inactive)
same,GI50,MDA-MB-231,24.3 µM (inactive)
same,GI50,SK-MEL-28,28.3 µM (inactive)
same,GI50,DU-145,27.7 µM (inactive)
same,GI50,NCI-H23,64 µM (inactive)
same,GI50,OVCAR-5,58.3 µM (inactive)
same,GI50,BT-549,27.9 µM (inactive)
same,GI50,UACC-257,19.1 µM (inactive)
same,GI50,Hs-578T,18.3 µM (inactive)
CC(=O)OC1C2CCC3C(C)(O)C4CC(O)C(C)(C)C4(O)C(O)CC13CC2(C)O (configuration not stated),GI50,786-0,> 100 µM (inactive)
same,GI50,SK-OV-3,> 100 µM (inactive)
same,GI50,LOX IMVI,> 100 µM (inactive)
same,GI50,HCT-116,> 100 µM (inactive)
same,GI50,OVCAR-4,> 100 µM (inactive)
same,GI50,MDA-N,> 100 µM (inactive)
same,GI50,HOP-92,> 100 µM (inactive)
same,GI50,TK-10,> 100 µM (inactive)
same,GI50,HCC 2998,> 100 µM (inactive)
same,GI50,SR,> 100 µM (inactive)
same,GI50,RPMI-8226,> 100 µM (inactive)
same,GI50,A498,> 100 µM (inactive)
same,GI50,KM12,> 100 µM (inactive)
same,GI50,HOP-62,> 100 µM (inactive)
same,GI50,HL-60,> 100 µM (inactive)
same,GI50,EKVX,> 100 µM (inactive)
same,GI50,HCT-15,> 100 µM
same,GI50,SN12C,> 100 µM (inactive)
same,GI50,NCI-H460,> 10 µM (inactive)
same,GI50,SF-295,> 100 µM (inactive)
same,GI50,T47D,> 100 µM (inactive)
same,GI50,SK-MEL-5,> 100 µM (inactive)
same,GI50,K562,> 100 µM (inactive)
same,GI50,MCF7,> 100 µM (inactive)
same,GI50,ACHN,> 100 µM (inactive)
same,GI50,OVCAR-3,> 100 µM (inactive)
same,GI50,SNB-75,> 100 µM (inactive)
same,GI50,CCRF-CEM,> 100 µM (inactive)
same,GI50,UO-31,> 100 µM (inactive)
same,GI50,OVCAR-8,> 100 µM (inactive)
same,GI50,SF-539,> 100 µM (inactive)
same,GI50,COLO 205,> 100 µM (inactive)
same,GI50,UACC-62,> 100 µM (inactive)
same,GI50,IGROV-1,> 100 µM (inactive)
same,GI50,SNB-19,> 100 µM (inactive)
same,GI50,NCI-H226,> 100 µM (inactive)
same,GI50,CAKI-1,> 100 µM (inactive)
same,GI50,SF-268,> 100 µM (inactive)
same,GI50,NCI-H522,> 100 µM (inactive)
same,GI50,PC-3,> 100 µM (inactive)
same,GI50,HT-29,> 100 µM (inactive)
same,GI50,A549,> 100 µM (inactive)
same,GI50,NCI/ADR-RES,> 100 µM (inactive)
same,GI50,M14,> 100 µM (inactive)
same,GI50,SK-MEL-2,> 100 µM (inactive)
same,GI50,MDA-MB-231,> 100 µM (inactive)
same,GI50,DU-145,> 100 µM (inactive)
same,GI50,NCI-H23,> 100 µM (inactive)
same,GI50,OVCAR-5,> 100 µM (inactive)
same,GI50,BT-549,> 100 µM (inactive)
same,GI50,UACC-257,> 100 µM (inactive)
same,GI50,Hs-578T,> 100 µM (inactive)

# Reference: ChEMBL document CHEMBL1201862, “PubChem BioAssay data set” (2004)
